Drawing on patent US12172983B2, “EGFR inhibitors” (Blueprint Medicines Corporation, priority 2019, dated 2024), this text covers IC50 for 7 molecules.

Test [1] relates to phosphorylation of EGFR (Tyr1068) in NCI-H1975 cell line that harbors the EGFR L858R T790M mutations. The test is described as follows: NCI-H1975 pEGFR AlphaLISA assay. The class given is cell-based. To be noted: Homo sapiens, NCI-H1975, inhibition of phosphorylation of mutant EGFR in NCI-H1975 cells; 4-5 hours incubation; read-out: Ext pEGFR H1975. An outline of the steps: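 NCI-H1975 cells (EGFR L858R/T790M) seeded overnight, then treated with compound for 4-5 h at 37 °C/5% CO2. After lysis, p-EGFR (Tyr1068) quantified by AlphaLISA SureFire Ultra with acceptor then donor beads; IC50 fitted from percent inhibition versus log concentration.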
Background: Alpha assays give light when donor and acceptor beads are brought close together.

Test [2] has as its target T1, EGFR (L858R T790M C797S) (Homo sapiens, UniProt P00533, C797S/L858R/T790M).
T1 construct: purchased SignalChem E10-122VG
The experiment in a line: Biochemical EGFR inhibition assay (Caliper mobility shift), EGFR LRTMCS mutant. To be noted: inhibitory activity against EGFR LRTMCS mutant; apparent IC50; read-out: Ext Enz LRTMCS. Summed up:
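Each enzyme was allowed to phosphorylate 10–20% of its peptide at 25° C. before EDTA (35 mM) quench. Separated substrate and product peaks were measured by mobility shift, giving apparent IC50 values.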

Molecules are shown by their SMILES.

T1 sequence (P00533 25-1210 T790M/C797S/L858R): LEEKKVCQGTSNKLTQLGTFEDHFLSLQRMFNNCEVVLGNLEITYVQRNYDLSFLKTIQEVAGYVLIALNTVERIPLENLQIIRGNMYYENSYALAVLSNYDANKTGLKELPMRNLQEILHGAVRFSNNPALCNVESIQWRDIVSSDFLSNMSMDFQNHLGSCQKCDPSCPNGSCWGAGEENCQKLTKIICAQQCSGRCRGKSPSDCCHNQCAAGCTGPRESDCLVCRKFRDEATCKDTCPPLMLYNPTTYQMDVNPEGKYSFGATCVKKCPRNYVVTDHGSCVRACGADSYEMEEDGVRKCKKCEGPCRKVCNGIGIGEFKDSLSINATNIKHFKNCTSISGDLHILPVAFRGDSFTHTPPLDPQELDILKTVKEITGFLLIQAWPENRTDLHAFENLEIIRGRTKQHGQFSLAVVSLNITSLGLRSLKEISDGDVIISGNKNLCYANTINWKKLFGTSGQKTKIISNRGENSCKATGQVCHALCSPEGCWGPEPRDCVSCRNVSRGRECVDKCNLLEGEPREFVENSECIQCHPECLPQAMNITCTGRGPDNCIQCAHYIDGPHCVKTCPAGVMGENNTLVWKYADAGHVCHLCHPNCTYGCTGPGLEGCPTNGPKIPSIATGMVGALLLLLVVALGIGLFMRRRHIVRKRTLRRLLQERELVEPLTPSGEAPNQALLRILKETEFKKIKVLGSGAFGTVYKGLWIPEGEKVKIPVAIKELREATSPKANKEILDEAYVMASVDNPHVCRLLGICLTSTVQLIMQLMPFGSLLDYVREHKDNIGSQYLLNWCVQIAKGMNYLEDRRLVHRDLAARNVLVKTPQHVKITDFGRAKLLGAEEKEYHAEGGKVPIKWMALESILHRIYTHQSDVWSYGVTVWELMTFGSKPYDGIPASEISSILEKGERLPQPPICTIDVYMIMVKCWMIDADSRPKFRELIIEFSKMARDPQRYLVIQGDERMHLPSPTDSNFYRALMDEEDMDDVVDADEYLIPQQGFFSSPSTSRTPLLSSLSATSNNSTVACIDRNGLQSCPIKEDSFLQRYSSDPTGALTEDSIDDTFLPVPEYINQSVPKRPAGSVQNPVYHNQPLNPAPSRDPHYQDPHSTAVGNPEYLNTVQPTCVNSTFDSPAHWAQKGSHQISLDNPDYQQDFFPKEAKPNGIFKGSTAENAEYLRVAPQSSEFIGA

For the molecule `CC(C)c1ncc(N2C[C@H](CS(C)(=O)=O)[C@H]2C)c2cnc(Nc3ccnc(N4CC[C@H]5COC[C@H]54)n3)cc12` (single isomer, unassigned) [Compound 267, N-(2-((3aR,6aS)-hexahydro-1H-furo[3,4-b]pyrrol-1-yl)pyrimidin-4-yl)-5-isopropyl-8-((2R,3S)-2-methyl-3-((methylsulfonyl)methyl)azetidin-1-yl)-2,6-naphthyridin-3-amine or N-(2-((3aS,6aR)-hexahydro-1H-furo[3,4-b]pyrrol-1-yl)pyrimidin-4-yl)-5-isopropyl-8-((2R,3S)-2-methyl-3-((methylsulfonyl)methyl)azetidin-1-yl)-2,6-naphthyridin-3-amine], the IC50 in test [1] is no more than 0.01 µM; in test [2], no more than 0.015 µM.

As for `C[C@]1(F)CN(c2nccc(Nc3cc4c(C5CC5)ccc(N5CC(CS(C)(=O)=O)C5)c4cn3)n2)CC[C@H]1O` (single isomer, unassigned) [Compound 51], the IC50 in test [1] was 0.0201 to 0.03 µM; in test [2], no more than 0.015 µM.

As to `CO[C@@H]1[C@H](F)CN(c2nccc(Nc3cc4c(C(C)C)ccc(N5CC(CS(C)(=O)=O)C5)c4cn3)n2)C[C@@H]1OC` (stereo in doubt) [Compound 201], the IC50 in test [1] is no more than 0.01 µM; in test [2], 0.0201 to 0.03 µM.

`[2H]C([2H])([2H])O[C@H]1CCN(c2nccc(Nc3cc4c(C5CC5)ccc(N5C[C@H](CS(C)(=O)=O)[C@H]5C)c4cn3)n2)C[C@H]1F` [Compound 316, 5-cyclopropyl-N-(2-((3R,4S)-3-fluoro-4-(^2H3)piperidin-1-yl)pyrimidin-4-yl)-8-((2R,3S)-2-methyl-3-((methylsulfonyl)methyl)azetidin-1-yl)isoquinolin-3-amine]: the values for the IC50 in test [1] and in test [2] were no more than 0.01 µM and no more than 0.015 µM, respectively.

For the molecule `CC(C)c1ccc(N2C[C@H](CS(C)(=O)=O)[C@H]2C)c2cnc(Nc3ccnc(N4CC[C@H](OCCO)[C@H](F)C4)n3)cc12` [Compound 228, 2-((3R,4S)-3-fluoro-1-(4-(5-isopropyl-8-((2R,3S)-2-methyl-3-(methylsulfonylmethyl)azetidin-1-yl)isoquinolin-3-ylamino)pyrimidin-2-yl)piperidin-4-yloxy)ethanol], the IC50 was no more than 0.01 µM in test [1] and no more than 0.015 µM in test [2].

As for `CC(C)c1ccc(N2C[C@H](CS(C)(=O)=O)[C@H]2C)c2cnc(Nc3ccnc(N4CC[C@@](C)(O)[C@H](O)C4)n3)cc12` (single isomer, unassigned) [Compound 102, (3R,4R)-1-[4-({8-[(2R,3S)-3-(methanesulfonylmethyl)-2-methylazetidin-1-yl]-5-(propan-2-yl)isoquinolin-3-yl}amino)pyrimidin-2-yl]-4-methylpiperidine-3,4-diol or (3S,4S)-1-[4-({8-[(2R,3S)-3-(methanesulfonylmethyl)-2-methylazetidin-1-yl]-5-(propan-2-yl)isoquinolin-3-yl}amino)pyrimidin-2-yl]-4-methylpiperidine-3,4-diol], the IC50 in test [1] was 0.0201 to 0.03 µM; in test [2] it was no more than 0.015 µM.

Turning to `CCS(=O)(=O)C[C@H]1CN(c2ccc(C(C)C)c3cc(Nc4ccnc(N5CC[C@@H](OCCO)C(F)(F)C5)n4)ncc23)[C@@H]1C` (single isomer, unassigned) [Compound 302, 2-{[(4R)-1-[4-({8-[(2R,3S)-3-[(ethanesulfonyl)methyl]-2-methylazetidin-1-yl]-5-(propan-2-yl)isoquinolin-3-yl}amino)pyrimidin-2-yl]-3,3-difluoropiperidin-4-yl]oxy}ethan-1-ol or 2-{[(4S)-1-[4-({8-[(2R,3S)-3-[(ethanesulfonyl)methyl]-2-methylazetidin-1-yl]-5-(propan-2-yl)isoquinolin-3-yl}amino)pyrimidin-2-yl]-3,3-difluoropiperidin-4-yl]oxy}ethan-1-ol], the figures for the IC50 in test [1] and in test [2] were no more than 0.01 µM and 0.0151 to 0.02 µM, respectively.
